Test results taken from patent US5591741A, “Fungicidal spiroheterocyclic derivatives” (American Cyanamid Company, priority 1993, dated 1997).

Legend:
[1] = tested on: Pseudocercosporella herpotrichoides; assay: Activity against wheat eyespot in-vitro (PHI); format: cell-based; conditions: 10 ppm, 10 days, 20° C., mycelial growth
Summary of the method: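 Mycelial growth was scored after 10 days at 20 °C against untreated or diluent controls. The broth was half-strength potato dextrose, holding 10 ppm test compound (from acetone) and 5×10^4 fragments/ml of the eyespot fungus.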

[2] = tested on: Plasmopara viticola; assay: Antisporulant activity against vine downy mildew (PVA); format: in vivo; conditions: vine leaves, antisporulant foliar spray, 600 ppm, 750 l/ha
Summary of the method: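 Cabernet Sauvignon vines (~8 cm) inoculated on lower leaf surfaces with 5×10^4 zoosporangia/ml, held 24 h at 21° C high humidity then 24 h glasshouse. Infected leaves sprayed underside with 600 ppm compound in 1:1 water/acetone, 0.04% Tween 20, 750 l/ha; 96 h glasshouse, 24 h humidity. Sporulating leaf area rated versus control.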

[3] = tested on: Leptosphaeria nodorum; assay: Activity against wheat leafspot (LN); format: in vivo; conditions: direct therapeutic foliar spray, 600 ppm, 6-8 days
Summary of the method: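 Therapeutic foliar spray: compound at 600 ppm applied to single-leaf wheat (cv Norman) 24 h after inoculation with 1.5×10^6 conidia/ml. Disease control scored after 6-8 days at 22° C and 70% humidity as lesions per leaf versus untreated or diluent-sprayed controls.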

[4] = tested on: Phytophthora infestans; format: in vivo; conditions: tomato, direct protectant foliar spray
[5] = tested on: Botrytis cinerea; assay: Direct protectant activity against broad bean grey mould (BCB); format: in vivo; conditions: direct protectant foliar spray, 600 ppm, 4 days
Summary of the method: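 Protectant foliar test: lesion coverage assessed 4 days after inoculation and rated relative to untreated or diluent-sprayed plants. Compound applied at 600 ppm to cv The Sutton leaves 24 h before 10^6 conidia/ml suspension; incubation at 22 °C in high humidity.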

[6] = tested on: Alternaria solani; assay: Activity against tomato early blight (AS); format: in vivo; conditions: Table VI; tomato seedlings, contact prophylactic foliar spray, 4 days
Summary of the method: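 Plants were challenged with A. solani conidia (10^4 spores/ml) 24 h after a protective foliar spray of compound in 50:50 acetone/water plus 0.04% Tween 20. Held humid at 21° C for 4 days, then percent leaf area with lesions was scored as a rating relative to controls.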

[7] = tested on: Erysiphe graminis f.sp. hordei; assay: Activity against barley powdery mildew, direct therapeutic (EGT); format: in vivo; conditions: direct therapeutic foliar spray, 600 ppm, up to 7 days
Summary of the method: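 A curative spray at 600 ppm was applied to single-leaf Golden Promise barley inoculated with powdery mildew conidia the previous day. After up to 7 days at 18 °C and 40% humidity, disease control was rated from percent leaf area sporulating relative to untreated or diluent-sprayed controls.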

[8] = tested on: Erysiphe graminis f.sp. hordei; assay: Direct protectant activity against barley powdery mildew (EGP); format: in vivo; conditions: direct protectant foliar spray, 8 days
Summary of the method: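 Rating reflects percentage of leaf area with sporulation compared with untreated or diluent-sprayed controls. Protectant spray was applied to single-leaf barley (cv Golden Promise) 24 h before conidia inoculation. Plants were kept at 18 °C and 40% RH throughout, with 8 days of disease development.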

[9] = tested on: Venturia inaequalis; assay: Activity against apple scab in-vitro (VII); format: cell-based; conditions: 10 ppm, 10 days, 20° C., mycelial growth
Summary of the method: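 V. inaequalis propagules (5×10^4/ml, malt agar-grown) were exposed in half-strength PDB to 10 ppm final test compound delivered in acetone. Growth was scored after incubation for 10 days at 20° C, as a rating relative to untreated or diluent-sprayed controls.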

[10] = tested on: Pyricularia oryzae; format: in vivo; conditions: rice seedlings, direct therapeutic foliar spray, 600 ppm, 4-5 days
[11] = tested on: Rhizoctonia solani; assay: Activity against Rhizoctonia in-vitro (RSI); format: cell-based; conditions: 10 ppm, 10 days, 20° C., mycelial growth
Summary of the method: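 Compound at a final 10 ppm (acetone vehicle) in half-strength PDB, inoculated with 5×10^4 fragments/ml of shaken-culture R. solani mycelium. After incubation at 20° C for 10 days, growth scored as a rating versus untreated or diluent-treated controls.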

CCCN(C(CC)CC)C1COC2(CCC(C(C)(C)C)CC2)C1 (centres unmarked) [Compound 96]
disease control rating PHI [1]: 0 (less than 50% disease control) | disease control rating PVA [2]: 0 (less than 50% disease control) | disease control rating LN [3]: 0 (less than 50% disease control) | disease control rating PIP [4]: 0 (less than 50% disease control) | disease control rating BCB [5]: 0 (less than 50% disease control) | disease control rating AS [6]: 0 (less than 50% disease control) | disease control rating EGT [7]: 2 (greater than 80% disease control) | disease control rating EGP [8]: 2 (greater than 80% disease control) | disease control rating VII [9]: 1 (about 50-80% disease control) | disease control rating PO [10]: 0 (less than 50% disease control) | disease control rating RSI [11]: 1 (about 50-80% disease control)

CC(C)(C)C1CCC2(CC1)CC(N)CO2 (centres unmarked) [Compound 97, 3-amino-8-t-butyl-1-oxaspiro(4,5)-decane]
disease control rating PHI [1]: 0 (less than 50% disease control) | disease control rating PVA [2]: 0 (less than 50% disease control) | disease control rating LN [3]: 0 (less than 50% disease control) | disease control rating PIP [4]: 2 (greater than 80% disease control) | disease control rating BCB [5]: 0 (less than 50% disease control) | disease control rating AS [6]: 0 (less than 50% disease control) | disease control rating EGT [7]: 2 (greater than 80% disease control) | disease control rating EGP [8]: 2 (greater than 80% disease control) | disease control rating VII [9]: 0 (less than 50% disease control) | disease control rating PO [10]: 0 (less than 50% disease control) | disease control rating RSI [11]: 0 (less than 50% disease control)

CC(C)(C)C1CCC2(CC1)CC(NC1CCC3CCCCC3C1)CO2 (centres unmarked) [Compound 98]
disease control rating PHI [1]: 0 (less than 50% disease control) | disease control rating PVA [2]: 0 (less than 50% disease control) | disease control rating LN [3]: 0 (less than 50% disease control) | disease control rating PIP [4]: 2 (greater than 80% disease control) | disease control rating BCB [5]: 2 (greater than 80% disease control) | disease control rating AS [6]: 0 (less than 50% disease control) | disease control rating EGT [7]: 2 (greater than 80% disease control) | disease control rating EGP [8]: 2 (greater than 80% disease control) | disease control rating VII [9]: 2 (greater than 80% disease control) | disease control rating PO [10]: 0 (less than 50% disease control) | disease control rating RSI [11]: 1 (about 50-80% disease control)

CCCC(CCC)NC1COC2(CCC(C(C)(C)C)CC2)C1 (centres unmarked) [Compound 99, 3-Hept-4-ylamino-8-t-butyl-1-oxaspiro(4,5)-decane]
disease control rating PHI [1]: 0 (less than 50% disease control) | disease control rating PVA [2]: 0 (less than 50% disease control) | disease control rating LN [3]: 0 (less than 50% disease control) | disease control rating PIP [4]: 2 (greater than 80% disease control) | disease control rating BCB [5]: 0 (less than 50% disease control) | disease control rating AS [6]: 0 (less than 50% disease control) | disease control rating EGT [7]: 2 (greater than 80% disease control) | disease control rating EGP [8]: 2 (greater than 80% disease control) | disease control rating VII [9]: 2 (greater than 80% disease control) | disease control rating PO [10]: 0 (less than 50% disease control) | disease control rating RSI [11]: 0 (less than 50% disease control)

CC(C)(C)C1CCC2(CC1)CC(NCCC1CCCCC1)CO2 (centres unmarked) [Compound 100]
disease control rating PHI [1]: 1 (about 50-80% disease control) | disease control rating PVA [2]: 0 (less than 50% disease control) | disease control rating LN [3]: 0 (less than 50% disease control) | disease control rating PIP [4]: 2 (greater than 80% disease control) | disease control rating BCB [5]: 2 (greater than 80% disease control) | disease control rating AS [6]: 0 (less than 50% disease control) | disease control rating EGT [7]: 2 (greater than 80% disease control) | disease control rating EGP [8]: 2 (greater than 80% disease control) | disease control rating VII [9]: 2 (greater than 80% disease control) | disease control rating PO [10]: 0 (less than 50% disease control) | disease control rating RSI [11]: 1 (about 50-80% disease control)

CCCCCC(C)NC1COC2(CCC(C(C)(C)C)CC2)C1 (centres unmarked) [Compound 101]
disease control rating PHI [1]: 1 (about 50-80% disease control) | disease control rating PVA [2]: 0 (less than 50% disease control) | disease control rating LN [3]: 0 (less than 50% disease control) | disease control rating PIP [4]: 0 (less than 50% disease control) | disease control rating BCB [5]: 2 (greater than 80% disease control) | disease control rating AS [6]: 0 (less than 50% disease control) | disease control rating EGT [7]: 2 (greater than 80% disease control) | disease control rating EGP [8]: 2 (greater than 80% disease control) | disease control rating VII [9]: 2 (greater than 80% disease control) | disease control rating PO [10]: 0 (less than 50% disease control) | disease control rating RSI [11]: 0 (less than 50% disease control)

CCCCC(CC)NC1COC2(CCC(C(C)(C)C)CC2)C1 (centres unmarked) [Compound 102]
disease control rating PHI [1]: 0 (less than 50% disease control) | disease control rating PVA [2]: 0 (less than 50% disease control) | disease control rating LN [3]: 0 (less than 50% disease control) | disease control rating PIP [4]: 0 (less than 50% disease control) | disease control rating BCB [5]: 1 (about 50-80% disease control) | disease control rating AS [6]: 0 (less than 50% disease control) | disease control rating EGT [7]: 2 (greater than 80% disease control) | disease control rating EGP [8]: 2 (greater than 80% disease control) | disease control rating VII [9]: 2 (greater than 80% disease control) | disease control rating PO [10]: 0 (less than 50% disease control) | disease control rating RSI [11]: 0 (less than 50% disease control)

C=CCN(CC=C)C1COC2(CCC(C(C)(C)C)CC2)C1 (centres unmarked) [Compound 103]
disease control rating PHI [1]: 0 (less than 50% disease control) | disease control rating PVA [2]: 0 (less than 50% disease control) | disease control rating LN [3]: 0 (less than 50% disease control) | disease control rating PIP [4]: 2 (greater than 80% disease control) | disease control rating BCB [5]: 2 (greater than 80% disease control) | disease control rating AS [6]: 0 (less than 50% disease control) | disease control rating EGT [7]: 2 (greater than 80% disease control) | disease control rating EGP [8]: 2 (greater than 80% disease control) | disease control rating VII [9]: 1 (about 50-80% disease control) | disease control rating PO [10]: 0 (less than 50% disease control) | disease control rating RSI [11]: 0 (less than 50% disease control)

CC(C)(C)C1CCC2(CC1)CC(NC1CCCCCC1)CO2 (centres unmarked) [Compound 104]
disease control rating PHI [1]: 0 (less than 50% disease control) | disease control rating PVA [2]: 0 (less than 50% disease control) | disease control rating LN [3]: 1 (about 50-80% disease control) | disease control rating PIP [4]: 2 (greater than 80% disease control) | disease control rating BCB [5]: 0 (less than 50% disease control) | disease control rating AS [6]: 0 (less than 50% disease control) | disease control rating EGT [7]: 2 (greater than 80% disease control) | disease control rating EGP [8]: 2 (greater than 80% disease control) | disease control rating VII [9]: 1 (about 50-80% disease control) | disease control rating PO [10]: 0 (less than 50% disease control) | disease control rating RSI [11]: 0 (less than 50% disease control)

CCCCCCC(C)NC1COC2(CCC(C(C)(C)C)CC2)C1 (centres unmarked) [Compound 105]
disease control rating PHI [1]: 2 (greater than 80% disease control) | disease control rating PVA [2]: 0 (less than 50% disease control) | disease control rating LN [3]: 1 (about 50-80% disease control) | disease control rating PIP [4]: 0 (less than 50% disease control) | disease control rating BCB [5]: 1 (about 50-80% disease control) | disease control rating AS [6]: 0 (less than 50% disease control) | disease control rating EGT [7]: 2 (greater than 80% disease control) | disease control rating EGP [8]: 2 (greater than 80% disease control) | disease control rating VII [9]: 2 (greater than 80% disease control) | disease control rating PO [10]: 0 (less than 50% disease control) | disease control rating RSI [11]: 2 (greater than 80% disease control)
